Target: T1, human ferroportin (Homo sapiens, UniProt Q9NP59)
T1 construct: luciferase reporter (read with the Nano-Glo Luciferase Assay System); expressed in transfected cells; host or cells: CHO cells, stably transfected, expression induced with doxycycline
T1 sequence (Q9NP59 1-571): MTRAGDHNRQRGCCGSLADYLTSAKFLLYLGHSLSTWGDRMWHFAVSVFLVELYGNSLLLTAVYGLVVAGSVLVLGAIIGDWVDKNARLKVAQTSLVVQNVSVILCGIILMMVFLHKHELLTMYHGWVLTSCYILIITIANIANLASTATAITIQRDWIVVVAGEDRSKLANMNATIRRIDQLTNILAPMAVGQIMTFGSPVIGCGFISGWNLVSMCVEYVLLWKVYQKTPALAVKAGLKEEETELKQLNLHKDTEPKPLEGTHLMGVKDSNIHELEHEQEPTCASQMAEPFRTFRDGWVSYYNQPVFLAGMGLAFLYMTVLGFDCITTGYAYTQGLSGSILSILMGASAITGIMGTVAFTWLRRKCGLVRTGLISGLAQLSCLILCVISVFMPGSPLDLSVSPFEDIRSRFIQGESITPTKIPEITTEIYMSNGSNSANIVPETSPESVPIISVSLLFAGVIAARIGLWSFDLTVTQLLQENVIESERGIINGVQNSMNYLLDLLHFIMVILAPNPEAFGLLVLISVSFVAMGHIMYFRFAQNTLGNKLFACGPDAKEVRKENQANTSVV
Experiment: Biological in-vitro ferroportin internalization assay (luciferase reporter)
Type: cell-based
Conditions: average pEC50; stably-transfected CHO cell line expressing human ferroportin tagged to a luciferase reporter; 6 h incubation with test compound
Outline: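 Stably transfected CHO cells expressing luciferase-tagged human ferroportin, plated 24 h with ferric ammonium citrate and induced with doxycycline for 24 h. Compounds incubated 6 h, then luciferase activity measured by Nano-Glo; average pEC50 reported.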

Row | Compound | pEC50
1 | CC(C)[C@@H](C(=O)NC(C)(C)C)N(C)c1nc(-c2ccccn2)nc2c1CCC2 [Compound 115, (2S)—N-tert-butyl-3-methyl-2-{methyl[2-(pyridin-2-yl)-5H,6H,7H-cyclopenta[d]pyrimidin-4-yl]amino}butanamide] | 7.1
2 | COc1ccc(NC(=O)CN(C)c2nc(-c3cc(OCC(C)(C)O)ccn3)nc3c2CCC3)cn1 [Compound 210, 2-({2-[4-(2-hydroxy-2-methylpropoxy)pyridin-2-yl]-5H,6H,7H-cyclopenta[d]pyrimidin-4-yl}(methyl)amino)-N-(6-methoxypyridin-3-yl)acetamide] | 7.9
3 | CN(CC(=O)NC(C)(C)C)c1nc(-c2cnc(O)cn2)nc2c1CCC2 [Compound 28, N-tert-butyl-2-{[2-(5-hydroxypyrazin-2-yl)-5H,6H,7H-cyclopenta[d]pyrimidin-4-yl](methyl)amino}acetamide] | 5.9
4 | CN(c1nc(-c2ccccn2)nc2c1CCC2)[C@@H](COC(C)(C)C)C(=O)NC(C)(C)C [Compound 120, (2S)-3-(tert-butoxy)-N-tert-butyl-2-{methyl[2-(pyridin-2-yl)-5H,6H,7H-cyclopenta[d]pyrimidin-4-yl]amino}propanamide] | 7.2
5 | COc1ccc(NC(=O)CN(C)c2nc(-c3cc(OCCO)ccn3)nc3c2CCC3)nc1 [Compound 209, 2-({2-[4-(2-hydroxyethoxy)pyridin-2-yl]-5H,6H,7H-cyclopenta[d]pyrimidin-4-yl}(methyl)amino)-N-(5-methoxypyridin-2-yl)acetamide] | 8
6 | C[C@H](C(=O)NC1CCCCC1)N(C)c1nc(-c2ccccn2)nc2c1CCC2 [Compound 108, (2R)—N-cyclohexyl-2-{methyl[2-(pyridin-2-yl)-5H,6H,7H-cyclopenta[d]pyrimidin-4-yl]amino}propanamide] | 7.6
7 | c1ccc(-c2nc3c(c(N4CCCCCC4)n2)CCC3)nc1 [Compound 92, 1-[2-(pyridin-2-yl)-5H,6H,7H-cyclopenta[d]pyrimidin-4-yl]azepane] | 6.5
8 | CN(CC(=O)NC(C)(C)C)c1nc(-c2cn(C)cn2)nc2c1CCC2 [Compound 125, N-tert-butyl-2-{methyl[2-(1-methyl-1H-imidazol-4-yl)-5H,6H,7H-cyclopenta[d]pyrimidin-4-yl]amino}acetamide] | 7.5
9 | CN(c1nc(-c2ccccn2)nc2c1CCC2)[C@H]1CCN(c2ccccc2)C1=O [Compound 131, (3S)-3-{methyl[2-(pyridin-2-yl)-5H,6H,7H-cyclopenta[d]pyrimidin-4-yl]amino}-1-phenylpyrrolidin-2-one] | 7.1
10 | CC1(C)CC[C@H](Nc2nc(-c3ccccn3)nc3c2CCC3)C(=O)N1 [Compound 56, (3S)-6,6-dimethyl-3-{[2-(pyridin-2-yl)-5H,6H,7H-cyclopenta[d]pyrimidin-4-yl]amino}piperidin-2-one] | 6.7

The next lines start with the values.

Row | pEC50 | Compound
11 | 7.7 | CN(CC(=O)N(C)C(C)(C)C)c1nc(-c2cc(OC3COC3)ccn2)nc2c1CCC2 [Compound 322, N-tert-butyl-N-methyl-2-[methyl({2-[4-(oxetan-3-yloxy)pyridin-2-yl]-5H,6H,7H-cyclopenta[d]pyrimidin-4-yl})amino]acetamide]
12 | 7.2 | COc1ccc(N(C)C(=O)CN(C)c2nc(-c3cc(OCCO)ccn3)nc3c2CCC3)cc1 [Compound 334, 2-({2-[4-(2-hydroxyethoxy)pyridin-2-yl]-5H,6H,7H-cyclopenta[d]pyrimidin-4-yl}(methyl)amino)-N-(4-methoxyphenyl)-N-methylacetamide]
13 | 7.6 | CNCCOc1ccnc(-c2nc3c(c(N(C)CC(=O)NC(C)(C)C)n2)CCC3)c1 [Compound 419, N-tert-butyl-2-[methyl(2-{4-[2-(methylamino)ethoxy]pyridin-2-yl}-5H,6H,7H-cyclopenta[d]pyrimidin-4-yl)amino]acetamide]
14 | 7.9 | Cc1ccc(NC(=O)CN(C)c2nc(-c3cc(OC4COC4)ccn3)nc3c2CCC3)cc1 [Compound 326, 2-[methyl({2-[4-(oxetan-3-yloxy)pyridin-2-yl]-5H,6H,7H-cyclopenta[d]pyrimidin-4-yl})amino]-N-(4-methylphenyl)acetamide]
15 | 6.9 | COc1ccnc(-c2nc3c(c(N(C)CC(=O)N4CCOCC4)n2)CCC3)c1 [Compound 477, 2-{[2-(4-methoxypyridin-2-yl)-5H,6H,7H-cyclopenta[d]pyrimidin-4-yl](methyl)amino}-1-(morpholin-4-yl)ethan-1-one]
16 | 7.4 | CN(CC(=O)Nc1cccc(F)c1)c1nc(-c2cc(OCC3(O)CC3)ccn2)nc2c1CCC2 [Compound 307, N-(3-fluorophenyl)-2-[(2-{4-[(1-hydroxycyclopropyl)methoxy]pyri-din-2-yl}-5H,6H,7H-cyclopenta[d]pyrimidin-4-yl)(methyl)amino]acetamide]
17 | 7.6 | CN(CC(=O)N[C@@H]1CCC[C@@H]1O)c1nc(-c2cc(OCC(C)(C)O)ccn2)nc2c1CCC2 [Compound 397, 2-({2-[4-(2-hydroxy-2-methylpropoxy)pyridin-2-yl]-5H,6H,7H-cyclopenta[d]pyrimidin-4-yl}(methyl)amino)-N-[(1R,2S)-2-hydroxycyclopentyl]acetamide]
18 | 8 | CN(CC(=O)NC(C)(C)C)c1nc(-c2cc(OCC(C)(C)N(C)C)ccn2)nc2c1CCC2 [Compound 404, N-tert-butyl-2-[(2-{4-[2-(dimethylamino)-2-methylpropoxy]pyridin-2-yl}-5H,6H,7H-cyclopenta[d]pyrimidin-4-yl)(methyl)amino]acetamide]
19 | 8.0 | CSCCOc1ccnc(-c2nc3c(c(N(C)CC(=O)NC(C)(C)C)n2)CCC3)c1 [Compound 506, N-tert-butyl-2-[methyl(2-{4-[2-(methylsulfanyl)ethoxy]pyridin-2-yl}-5H,6H,7H-cyclopenta[d]pyrimidin-4-yl)amino]acetamide]
20 | 7.1 | CSCC[C@H](C(=O)NC(C)(C)C)N(C)c1nc(-c2cc(OC(F)F)ccn2)nc2c1CCC2 [Compound 212, (2R)—N-tert-butyl-2-({2-[4-(difluoromethoxy)pyridin-2-yl]-5H,6H,7H-cyclopenta[d]pyrimidin-4-yl}(methyl)amino)-4-(methylsulfanyl)butanamide]
21 | 7.9 | CN(CC(=O)NC(C)(C)C)c1nc(-c2cc(OCCn3cnnn3)ccn2)nc2c1CCC2 [Compound 466, N-tert-butyl-2-[methyl(2-{4-[2-(1H-1,2,3,4-tetrazol-1-yl)ethoxy]pyridin-2-yl}-5H,6H,7H-cyclopenta[d]pyrimidin-4-yl)amino]acetamide]
22 | 6 | COc1ccc(NC(=O)CN(C)c2nc(-c3cc4ccncc4cn3)nc3c2CCC3)cn1 [Compound 268, N-(6-methoxypyridin-3-yl)-2-{methyl[2-(2,7-naphthyridin-3-yl)-5H,6H,7H-cyclopenta[d]pyrimidin-4-yl]amino}acetamide]
23 | 8 | CCC(C)(C)NC(=O)CN(C)c1nc(-c2cc(OCCO)ccn2)nc2c1CCC2 [Compound 367, 2-({2-[4-(2-hydroxyethoxy)pyridin-2-yl]-5H,6H,7H-cyclopenta[d]pyrimidin-4-yl}(methyl)amino)-N-(2-methylbutan-2-yl)acetamide]
24 | 7.9 | CN(CC(=O)NC(C)(C)C)c1nc(-c2cc(O[C@H]3CCOC3)ccn2)nc2c1CCC2 [Compound 317, N-tert-butyl-2-[methyl(2-{4-[(3S)-oxolan-3-yloxy]pyridin-2-yl}-5H,6H,7H-cyclopenta[d]pyrimidin-4-yl)amino]acetamide]

From patent publication US11746100B2 (GLOBAL BLOOD THERAPEUTICS, INC., priority 2020, dated 2023)
